# Target: T1, p38 MAPK/MK2 (Homo sapiens, UniProt Q16539)
# T1 construct: purchased Carna (p38α); Abcam (MK2) 04-152; 79910
# Test: In vitro activity assay of p38 MAPK/MK2 (Z-LYTE kinase assay kit)
# Assay type: biochemical
# Conditions: active p38α, inactive MK2, Ser/Thr 4; 1-hour reaction at 20° C.
# Procedure: (§1) The inhibitory effect of the compound on p38 MAPK/MK2 was evaluated using the Z-LYTE kinase assay kit (Thermo, PV3177). The test compound was dissolved in DMSO to obtain a 10 mM stock solution and stored at −20° C. for future use. The initial concentration of the compound was […], with 1% DMSO, 5-fold serial dilution, 8 concentrations, and duplicate wells. […] After a 1-hour reaction at 20° C., Development Reagent A diluted 2048-fold was added to each well, followed by incubation at room temperature for 1 hour. The reaction was terminated by adding 5 μL of stop buffer, and the plate was read using a microplate reader (Ex. 400 nm, Em. 445 nm; Ex. 400 nm, Em. 520 nm). The concentration-effect curve was fitted using GraphPad Prism 8 software, and the compound concentration resulting in 50% inhibition, IC50, was calculated.
# T1 sequence (Q16539 whole entry): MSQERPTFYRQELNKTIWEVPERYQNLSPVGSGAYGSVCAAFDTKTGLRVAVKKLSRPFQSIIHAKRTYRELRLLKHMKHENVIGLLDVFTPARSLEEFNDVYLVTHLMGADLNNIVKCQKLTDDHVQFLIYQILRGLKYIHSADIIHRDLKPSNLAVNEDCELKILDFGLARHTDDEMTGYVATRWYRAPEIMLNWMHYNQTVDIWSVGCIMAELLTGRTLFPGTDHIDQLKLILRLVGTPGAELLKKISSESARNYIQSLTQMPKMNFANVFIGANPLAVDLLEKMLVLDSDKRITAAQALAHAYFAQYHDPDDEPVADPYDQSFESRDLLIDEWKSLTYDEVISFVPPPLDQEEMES
# T1 sequence (P49137 whole entry partner): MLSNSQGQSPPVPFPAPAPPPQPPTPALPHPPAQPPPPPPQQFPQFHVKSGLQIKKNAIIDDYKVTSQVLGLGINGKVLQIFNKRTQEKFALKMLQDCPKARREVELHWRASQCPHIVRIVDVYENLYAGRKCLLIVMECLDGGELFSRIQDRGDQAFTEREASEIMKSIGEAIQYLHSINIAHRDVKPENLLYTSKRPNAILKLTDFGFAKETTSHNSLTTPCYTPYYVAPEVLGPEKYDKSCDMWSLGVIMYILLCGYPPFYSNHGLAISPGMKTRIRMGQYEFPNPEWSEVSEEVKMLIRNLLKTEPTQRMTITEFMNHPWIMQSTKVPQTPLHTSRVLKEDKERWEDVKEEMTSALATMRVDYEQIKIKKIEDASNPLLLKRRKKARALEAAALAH
row,IC50 [nM],Structure (SMILES)
1,3.65,Cc1cnc(-c2cccc(C(=O)N(C)C)c2)c(F)c1-n1c(C)cc(OCc2ncc(F)cc2F)c(Cl)c1=O [Compound 32]
2,1.44,Cc1cnc(-c2cccc([C@@](C)(O)CO)c2F)cc1-n1c(C)cc(OCc2ncc(F)cc2F)c(Cl)c1=O [Compound 35-P1]
3,0.71,Cc1cnc(-c2ccc(F)c([C@](C)(O)CO)c2)c(F)c1-n1c(C)cc(OCc2ncc(F)cc2F)c(Cl)c1=O [Compound 51-P2]

# Tested on: not listed separately
# Test: In vitro liver microsome stability, mouse
# Assay type: in vitro ADME
# Conditions: liver microsomes, 0.5 mg/mL microsomes, 1 μM compound, NADPH, 37° C., read-out: Mouse liver microsomes Half-life T1/2
# Procedure: (§2) The reference compound used in this experiment was Ketanserin, and the final concentration of microsomes in the experimental system was 0.5 mg/mL. The PBS buffer was a 50 mM K2HPO4 buffer. The concentration of the test compound was 1 μM. The microsomes were added to PBS, and the control/test compounds were respectively added to the corresponding reaction systems, mixed thoroughly, and pre-incubated in a 37° C. water bath for 5 minutes. The reaction was initiated by adding 20 mM NADPH solution under 37° C. water bath conditions (for the No NADPH samples, an equal volume of PBS solution was used as a substitute for the 20 mM NADPH solution). At the reaction time points of 0 min, 10 min, 30 mun, 60 min, and 90 min, 30 μL of reaction samples were taken from each reaction system (for the No NADPH samples, sampling was performed at 0 min and 90 min), and the reaction was immediately terminated by adding 300 μL of the internal standard acetonitrile solution. After centrifugation at 4000 rpm, the supernatant was taken and mixed thoroughly with an equal volume of pure water. The samples at each time point were analyzed by LC-MS/MS (AB Triple Quard 5500) to determine the compound content, and the T1/2 was calculated.
row,half-life at 1 μM [h],Structure (SMILES)
1,> 4.66,Cc1cnc(-c2cccc([C@@](C)(O)CO)c2F)cc1-n1c(C)cc(OCc2ncc(F)cc2F)c(Cl)c1=O [Compound 35-P1]

# Target: T2, p38 MAPK/MK5 (Homo sapiens, UniProt Q16539)
# T2 construct: purchased Carna (p38α); Abcam (MK5) 04-152; 217826
# Test: In vitro activity assay of p38 MAPK/MK5 (Z-LYTE kinase assay kit)
# Assay type: biochemical
# Conditions: active p38α, inactive MK5, Ser/Thr 4; 4-hour reaction at 20° C.
# Procedure: as §1, with “MAPK/MK5” for “MAPK/MK2”, “4-hour” for “1-hour”, “µL” for “μL”
# T2 sequence (Q16539 whole entry): as the sequence (Q16539 whole entry) above
row,IC50 [nM],Structure (SMILES)
1,6250,Cc1cnc(-c2cccc(C(=O)N(C)C)c2)c(F)c1-n1c(C)cc(OCc2ncc(F)cc2F)c(Cl)c1=O [Compound 32]
2,4670,Cc1cnc(-c2cccc([C@@](C)(O)CO)c2F)cc1-n1c(C)cc(OCc2ncc(F)cc2F)c(Cl)c1=O [Compound 35-P1]
3,4490,Cc1cnc(-c2ccc(F)c([C@](C)(O)CO)c2)c(F)c1-n1c(C)cc(OCc2ncc(F)cc2F)c(Cl)c1=O [Compound 51-P2]

# Tested on: not listed separately
# Test: In vitro liver microsome stability, human
# Assay type: in vitro ADME
# Conditions: liver microsomes, 0.5 mg/mL microsomes, 1 μM compound, NADPH, 37° C., read-out: Human liver microsomes Half-life T1/2
# Procedure: as §2
row,half-life at 1 μM [h],Structure (SMILES)
1,> 4.66,Cc1cnc(-c2cccc([C@@](C)(O)CO)c2F)cc1-n1c(C)cc(OCc2ncc(F)cc2F)c(Cl)c1=O [Compound 35-P1]

# Tested on: not listed separately
# Test: In vitro liver microsome stability, rat
# Assay type: in vitro ADME
# Conditions: liver microsomes, 0.5 mg/mL microsomes, 1 μM compound, NADPH, 37° C., read-out: Rat liver microsomes Half-life T1/2
# Procedure: as §2
row,half-life at 1 μM [h],Structure (SMILES)
1,> 4.66,Cc1cnc(-c2cccc([C@@](C)(O)CO)c2F)cc1-n1c(C)cc(OCc2ncc(F)cc2F)c(Cl)c1=O [Compound 35-P1]

# Tested on: TNF-α in human PBMC cells
# Test: In vitro TNF-α activity assay in human PBMC cell supernatant (LPS, ELISA)
# Assay type: cell-based
# Conditions: Homo sapiens, PBMC, 24 h, LPS 100 ng/mL, read-out: p38 MAPK/TNF-α IC50
# Procedure: The inhibitory effect of the compound on TNF-α in the supernatant of human PBMC cells was evaluated using an ELISA detection kit (Beyotime, PI518). The test compound was dissolved in DMSO to obtain a 10 mM stock solution and stored at −20° C. for future use. The initial concentration of the compound was […], followed by 5-fold serial dilution to obtain 6 concentrations. Cells were plated in duplicate, and ELISA was performed in single wells. The final concentration of DMSO was 0.4%. Alternatively, the initial concentration of the compound, dilution factor, number of concentration gradients, and replicates could be adjusted based on the specific screening conditions.
# Fresh human peripheral blood mononuclear cells (PBMCs) (Sailybio) were seeded at a density of 2×10^5 cells per well in a 96-well plate (Corning, 3599), with each well containing 100 μL of RPMI-1640 (Gibco #A1049101)+10% FBS (Gibco, 10099141C), and incubated overnight at 37° C. under 5% CO2. Test compounds were added to the 96-well culture plate at a volume of 25 μL per well. After 1 hour, 5 μL of LPS was added to achieve a final concentration of 100 ng/mL. No LPS and compound were added to the negative control wells, and no compound was added to the positive control wells. The mixture was further incubated for 24 hours at 37° C. under 5% CO2. Subsequently, the cell culture supernatant was collected by centrifugation at 500 rcf for 8 minutes. The concentration of TNF-α was measured according to the operation manual of the ELISA kit. The concentration-effect curve was fitted using GraphPad Prism 8 software, and the compound concentration resulting in 50% inhibition, IC50, was calculated.
row,Structure (SMILES),IC50 [nM]
1,Cc1cnc(-c2cccc([C@@](C)(O)CO)c2F)cc1-n1c(C)cc(OCc2ncc(F)cc2F)c(Cl)c1=O [Compound 35-P1],1.9

# Same assay, conditions: LPS 100 ng/mL, 24 hours, read-out: p38 MAPK/TNF-α IC50
row,Structure (SMILES),IC50 [nM]
1,Cc1cnc(-c2cccc(C(=O)N(C)C)c2)c(F)c1-n1c(C)cc(OCc2ncc(F)cc2F)c(Cl)c1=O [Compound 32],2.89

# — US20260217652A1, “PHENYL-SUBSTITUTED HETEROARYL COMPOUND AND PHARMACEUTICAL COMPOSITION COMPRISING SAME, PREPARATION METHOD THEREFOR AND USE THEREOF” (SHANGHAI MEIYUE BIOTECH DEVELOPMENT CO., LTD., priority 2023, published 2026)
